Consider six compounds from patent US11883407B2, “Medicament for the treatment of chronic cough” (Shionogi & Co., Ltd., priority 2018, dated 2024).

For data set [1] the following is noted: cited from earlier work; for dysgeusia as adverse event: 12 weeks.
Data set [2] relates to patients with chronic cough. The conditions noted are these: cited from earlier work.
Data set [3] can be described thus: Study MK-7264-012 (NCT02612610) of Gefapixant: taste-related adverse events. In kind it is in vivo, human. The conditions noted are these: 50 mg; difference between treatment groups. The method, then: In addition, a large number of clinical trial protocols for AF-219 (MK-7264, Gefapixant) and their results are recorded on ClinicalTrials.gov. For example, the results of a trial in which 253 of the 367 candidate patients were randomly assigned to a twice daily oral administration group of a placebo, 7.5 mg, 20 mg or 50 mg of AF-219 to confirm the therapeutic effect after 12 weeks, have been published under the identification number NCT02612610. Among the trial results, it was published that as one of the adverse events, for example, dysgeusia was confirmed in each dose group: 9.52% (7.5 mg administration group, 6 out of 63 cases), 33.33% (20 mg administration group, 21 out of 63 cases) and 47.62% (50 mg administration group, 30 out of 63 cases). […]
Based on the above results, for the proportion of subjects who experienced any of the taste-related adverse events, the study design of each study was taken into account, and as the difference between each investigational drug and placebo, the mean of differences of incidence in the same subject between the treatments and the two-sided 95% confidence interval thereof were calculated for Test Example 6, and the difference of incidence between the Gefapixant 50 mg treatment group and the placebo treatment group and the two-sided 95% confidence interval thereof were calculated for the study MK-7264-012.

For data set [4] the following is noted: human, in vivo; cited from earlier work.
For data set [5], the system named is pulmonary vagal afferent C and A fibers. The settings on record: cited from earlier work.
Data set [6] deals with nerve fibers of the ganglion inferius. The conditions noted are these: guinea pig lung tissue; cited from earlier work.
For data set [7] the following is noted: cited from earlier work.
The mark [8] stands for this setting: 50 mg twice daily, 63 subjects in safety analysis.

Like-named read-outs stand apart in the source and are kept apart here.

For the compound `COc1cc(C(C)C)c(Oc2cnc(N)nc2N)cc1S(N)(=O)=O` [Gefapixant], the “dysgeusia as adverse event” value in data set [1] (7.5 mg twice daily, 6 out of 63 cases) is 9.52%; in data set [1] (20 mg twice daily, 21 out of 63 cases), 33.33%; in data set [1] (50 mg twice daily, 30 out of 63 cases), 47.62%; in data set [2] (21 out of 24 cases), 88%. Moreover, in data set [1] (setting [8]), the “Ageusia, number of subjects and incidence” value is 13 (20.6%). For the same compound, the “Any of taste-related adverse events, number of subjects and incidence” value in data set [1] (setting [8]) was 51 (81.0%). In data set [1] (setting [8]), the “Dysgeusia, number of subjects and incidence” value is reported as 30 (47.6%). Moreover, the “Hypogeusia, number of subjects and incidence” value in data set [1] (setting [8]) is recorded as 15 (23.8%). The “hypogeusia as adverse event” value in data set [2] (13 out of 24 cases) is on record as 54%. Further, the “participants who discontinued the trial due to a taste disturbance (hypogeusia or dysgeusia)” value in data set [2] (human, in vivo) is 6. The taste-related disorder entry in data set [2] (patients administered with AF-219) is on record as “all patients developed some kind of taste-related disorder”. Besides, the “reduction of the frequency of daytime cough compared to the placebo group” value in data set [2] (patients with chronic cough) is listed as 75%. The “Difference of incidence of any of the taste-related adverse events (drug − placebo)” value in data set [3] was found to be 74.6%.

Take `Cc1cnc(-c2cc(O[C@@H]3CCOC3)cc(C(=O)N[C@H](C)c3cnc(C(F)(F)F)nc3)c2)s1` [BAY-1817080]: the “number of coughs per 24 hours” value in data set [4] is recorded as “a reduction in the number of coughs per 24 hours was confirmed”.

As for `O=C(O)c1cc(C(=O)O)c(C(=O)N(Cc2cccc(Oc3ccccc3)c2)[C@H]2CCCc3ccccc32)cc1C(=O)O` [Compound A-317491, (5-({3-phenoxybenzyl)[(1S)-1,2,3,4-tetrahydro-1-naphthalenyl]amino}carbonyl)-1,2,4-benzenetricarboxylic acid], in data set [5], the “activity of pulmonary vagal afferent C and A fibers by α,βmATP” value was “inhibits activity of the pulmonary vagal afferent C and A fibers”.

Consider `COc1cc(C(C)C)c(Oc2cnc(N)nc2N)cc1I` [AF-353], for which the “action potential in nerve fibers of the ganglion inferius evoked by ATP or αβ-methylene ATP” value in data set [6] was “almost completely suppressed”.

As to TNP-ATP, the “action potential in nerve fibers of the ganglion inferius evoked by ATP or αβ-methylene ATP” value in data set [6] was “almost completely suppressed”.

`CNC(=O)c1cc(F)c(-c2nc3cc(C)ccn3c2C[C@H]2CN(C(=O)OC)CCO2)c(F)c1` [BLU-5937]: the “taste changes, subjects” value in data set [7] (100 mg (n=16)) is on record as 6.3%; in data set [7] (400 mg (n=16)) it was 37.5%; in data set [7] (800 mg (n=8)), 62.5%; in data set [7] (1200 mg (n=8)), 25%. Further, the “partial taste loss, subjects” value in data set [7] (400 mg (n=16)) is on record as 6.25%; in data set [7] (800 mg (n=8)), 12.5%. In data set [7] (single and repeated administration), the “course of taste-related adverse events” value is “all taste-related adverse events were transient and sporadic”.
